Measurements as given in publication PMC9768319 (iScience, 2022).
Read-outs that look alike come from different tables or passages of the source.

What was measured:
[1] = system: KPC1242 cells; experiment: Ki-67 proliferation staining; assay type: cell-based, murine; details: KPC1242, 24-h treatment, MMe 0.7 μM or pCF3-MMe 3 μM
[2] = system: AsPC-1 cells; experiment: TMRE retention by flow cytometry; assay type: cell-based, human; details: AsPC-1, serum-starved, 1 h treatment
[3] = system: HPSC cells; experiment: TMRE retention by flow cytometry; assay type: cell-based, human; details: serum-starved, 1 h treatment
[4] = system: KPC1242 cells; experiment: Luminescent ATP detection assay; assay type: cell-based, murine; details: KPC1242, 24 h, 0.7 μM MMe or 3 μM pCF3-MMe
[5] = system: AMP-Activated Protein Kinase (AMPK); experiment: AMPK Thr172 phosphorylation immunoblot; assay type: cell-based, murine; details: KPC1242, 0.7 μM MMe or 3 μM pCF3-MMe
[6] = Tolerability, single intra-peritoneal injection in non-tumor-bearing mice; assay type: in vivo
[7] = Tolerability, daily injection for 5 consecutive days in non-tumor-bearing mice; assay type: in vivo; details: daily for 5 consecutive days, 25 μg/mouse to 1 mg/mouse
[8] = system: HPNE and HPSC cells; assay type: cell-based, human; details: for sensitivity of normal, non-transformed cells compared to cancer cells: HPNE and HPSC vs cancer cells
[9] = system: cancer cells (KPC1242, Panc-1, AsPC-1, HCT-116, MDA-MB-231, OVCAR-4, OVCAR-8); experiment: Cell confluence across the battery of cancer cell lines; assay type: cell-based; details: escalating concentrations (0.1 µM-10 µM)
[10] = system: pancreatic, breast, and colon cancers; details: cited from earlier work
[11] = after administration; cited from earlier work
[12] = assay type: in vivo, mice
[13] = system: Panc-1 cells; experiment: Cell confluence growth inhibition; assay type: cell-based, human

Structure (SMILES): N=C(N)NC(=N)NCCCCCCCCCC[P+](c1ccccc1)(c1ccccc1)c1ccccc1.[Br-] [MMe, 10-[(carbamimidamidomethanimidoyl)amino]decyl-triphenylphosphonium bromide]
- reduction in Ki-67 levels [1]: 20-30%
- TMRE accumulation within mitochondria [2]: significantly reduced TMRE accumulation
- TMRE accumulation within mitochondria [3]: did not affect TMRE accumulation
- Levels of ATP [4]: significantly reduced
- AMPK activation (Thr172 phosphorylation) [5]: significant increase in AMPK activation
- mortality after single injection ([6]; single intra-peritoneal injection of 250 μg or 1 mg): significant and rapid mortality
- tolerability of repeated injection [7]: succumbed to 4-fold lower doses
- sensitivity of normal, non-transformed cells compared to cancer cells [8]: more than a log-unit less sensitive
- cell confluency [9]: decreased in a concentration-dependent manner
- fold more efficacious compared to metformin [10]: 100- to 1000 fold

Structure (SMILES): COC1=C(OC)C(=O)C(CCCCCCCCCC[P+](c2ccccc2)(c2ccccc2)c2ccccc2)=C(C)C1=O [MitoQ]
- half-life [11]: ~30 min

Structure (SMILES): N=C(N)NC(=N)NCCCCCCCCCC[P+](c1cccc(C(F)(F)F)c1)(c1cccc(C(F)(F)F)c1)c1cccc(C(F)(F)F)c1.[Br-] [mCF3-MMe, (10-(3-carbamimidoylguanidino)decyl)tris(3-(trifluoromethyl)phenyl)phosphonium bromide]
- sensitivity of normal, non-transformed cells compared to cancer cells [8]: more than a log-unit less sensitive
- reduction in toxicity to normal cells compared to MMe [8]: ~10 fold
- cell confluency [9]: decreased in a concentration-dependent manner

Structure (SMILES): N=C(N)NC(=N)NCCCCCCCCCC[P+](c1ccc(C(F)(F)F)cc1)(c1ccc(C(F)(F)F)cc1)c1ccc(C(F)(F)F)cc1.[Br-] [pCF3-MMe, (10-(3-carbamimidoylguanidino)decyl)tris(4-(trifluoromethyl)phenyl)phosphonium bromide]
- reduction in Ki-67 levels [1]: 20-30%
- TMRE accumulation within mitochondria [2]: significantly reduced TMRE accumulation
- TMRE accumulation within mitochondria [3]: did not affect TMRE accumulation
- Levels of ATP [4]: significantly reduced
- AMPK activation (Thr172 phosphorylation) [5]: significant increase in AMPK activation
- detection in the blood and liver ([12]; 2 h after intra-tumoral injection of 1 mg): undetectable
- detection in the blood and liver ([12]; 6 h after injection (not shown)): barely detectable above the signal-to-noise ratio
- levels within the tumors ([12]; 24 h after injection, 1 mg/mouse): measurable levels
- mice surviving ([6]; single intra-peritoneal injection of 1 mg): 100%
- tolerability of repeated injection [7]: tolerated a 1 mg dose
- sensitivity of normal, non-transformed cells compared to cancer cells [8]: more than a log-unit less sensitive
- toxic effects toward non-transformed HPNE and HPSC-1 cells ([8]; compared to parent MMe and mCF3-MMe): least toxic effects
- reduction in toxicity to normal cells compared to MMe [8]: ~10 fold
- cell confluency [9]: decreased in a concentration-dependent manner

Structure (SMILES): COc1ccc([P+](CCCCCCCCCCNC(=N)CC(=N)N)(c2ccc(OC)cc2)c2ccc(OC)cc2)cc1.[Br-] [pMeO-MMe, [10-(2-carbamimidoylethanimidamido)decyl]tris(4-methoxyphenyl)phosphonium bromide]
- confluence of human pancreatic cancer cells ([13]; Panc-1 (Figure S5), escalating concentrations): concentration-dependent decrease in confluence
- efficacy in pancreas cancer cells ([13]; in contrast to the fluorinated compound): lower efficacy
